Source: patent publication US20060178513A1, “Pyridinylanilides” (priority 2003, published 2006)
Like-named read-outs stand apart in the source and are kept apart here.

What was measured:
[1] = tested on: Podosphaera leucotricha; assay: Podosphaera test (apple)/protective; assay type: in vivo; details: topical, 240 h, apple plants, protective, application rate 100 g/ha, evaluation 10 days after inoculation, read-out: Efficacy in %
Protocol: [table] To produce a suitable preparation of active compound, 1 part by weight of active compound is mixed with the stated amounts of solvent and emulsifier, and the concentrate is diluted with water to the desired concentration. To test for protective activity, young plants are sprayed with the preparation of active compound at the stated application rate. After the spray coating has dried on, the plants are inoculated with an aqueous spore suspension of the apple mildew pathogen Podosphaera leucotricha. The plants are then placed in a greenhouse at about 23° C. and a relative atmospheric humidity of about 70%. Evaluation is carried out 10 days after the inoculation. 0% means an efficacy which corresponds to that of the control, whereas an efficacy of 100% means that no infection is observed.

[2] = logP determination by HPLC (reversed-phase C 18), EEC Directive 79/831 Annex V.A8; assay type: physicochemical
Protocol: The logP values given in the Preparation Examples were determined in accordance with EEC Directive 79/831 Annex V.A8 by HPLC (High Performance Liquid Chromatography) using a reversed-phase column (C 18). Temperature: 43° C. Mobile phases for the determination in the acidic range: 0.1% aqueous phosphoric acid, acetonitrile; linear gradient from 10% acetonitrile to 90% acetonitrile. Calibration was carried out using straight-chain alkan-2-ones (having 3 to 16 carbon atoms) with known logp values (determination of the logp values by the retention times using linear interpolation between two successive alkanones).

[3] = tested on: Venturia inaequalis; assay: Venturia Test (Apple)/protective; assay type: in vivo; details: topical, 240 h, apple plants, protective, application rate 100 g/ha, evaluation 10 days after inoculation, read-out: Efficacy in %
Protocol: [table] To produce a suitable preparation of the active compound, 1 part by weight of active compound is mixed with the stated amounts of solvents and emulsifier, and the concentrate is diluted with water to the desired concentration. To test for protective activity, young plants are sprayed with the preparation of active compound at the stated application rate. After the spray coating has dried on, the plants are inoculated with an aqueous conidia suspension of the apple scab pathogen Venturia inaequalis and then remain in an incubation cabin at about 20° C. and 100% relative atmospheric humidity for 1 day. The plants are then placed in a greenhouse at about 21° C. and a relative atmospheric humidity of about 90%. Evaluation is carried out 10 days after the inoculation. 0% means an efficacy which corresponds to that of the control, whereas an efficacy of 100% means that no infection is observed.

[4] = tested on: Puccinia recondita; assay: Puccinia test (wheat)/protective; assay type: in vivo; details: wheat plants, protective, application rate 500 g/ha, evaluation 10 days after inoculation
Protocol: (§1) [table] To produce a suitable preparation of active compound, 1 part by weight of active compound is mixed with the stated amounts of solvent and emulsifier, and the concentrate is diluted with water to the desired concentration. To test for protective activity, young plants are sprayed with the preparation of active compound at the stated application rate. After the spray coating has dried on, the plants are sprayed with a conidia suspension of Puccinia recondita. The plants remain in an incubation cabin at 20° C. and 100% relative atmospheric humidity for 48 hours. The plants are then placed in a greenhouse at a temperature of approximately 20° C. and a relative atmospheric humidity of 80% to promote the development of rust pustules. Evaluation is carried out 10 days after the inoculation. 0% means an efficacy which corresponds to that of the control, whereas an efficacy of 100% means that no infection is observed.

[5] = tested on: Pyrenophora teres; assay: Pyrenophora teres test (barley)/protective; assay type: in vivo; details: barley plants, protective, application rate 500 g/ha, evaluation 8 days after inoculation
Protocol: as §1, with “stated amount” for “stated amounts”, “of Pyrenophora teres.” for “of Puccinia recondita.”, “of about” for “of approximately”, “of about 80%.” for “of 80% to promote the development of rust pustules.”, “out 8” for “out 10”

[6] = tested on: Alternaria solani; assay: Alternaria test (tomato)/protective; assay type: in vivo; details: tomato plants, protective, application rate 750 g/ha, evaluation 7 days after inoculation
Protocol: [table] To produce a suitable preparation of active compound, 1 part by weight of active compound is mixed with the stated amounts of solvent and emulsifier, and the concentrate is diluted with water to the desired concentration. To test for protective activity, young tomato plants are sprayed with the preparation of active compound at the stated application rate. 1 day after the treatment, the plants are inoculated with a spore suspension of Alternaria solani and then remain at 100% rel. humidity and 20° C. for 24 h. The plants then remain at 96% rel. atmospheric humidity and a temperature of 20° C. Evaluation was carried out 7 days after the inoculation. 0% means an efficacy which corresponds to that of the control, whereas an efficacy of 100% means that no infection is observed.

[7] = reversed-phase HPLC column (C 18), HPLC, reversed-phase C 18, 43° C., acidic range (0.1% aqueous phosphoric acid/acetonitrile), read-out: logP
[8] = reversed-phase HPLC column (C 18), pH 2.3, HPLC, reversed-phase C 18, 43° C., read-out: log P (pH 2.3)

Row | SMILES | chromatographic logP [2, 7] | pest or weed control at 100 g/ha [1] [%] | pest or weed control at 100 g/ha [3] [%] | other results
1 | Cn1cc(C(=O)Nc2ccccc2-c2ncc(C(F)(F)F)cc2Cl)c(I)n1 [1-8-30] | 2.92 |  | 92 | 
2 | Cc1ccsc1C(=O)Nc1ccccc1-c1ncc(C(F)(F)F)cc1Cl [1-8-3] | 3.83 | 100 | 100 | Efficacy in % [4]: 100%; Efficacy in % [5]: 100%; Efficacy in % [6]: 95%
3 | Cn1nc(C(F)(F)F)c(C(=O)Nc2ccccc2-c2cc(Cl)nc(Cl)c2)c1F [1-7-9] |  |  | 100 | 
4 | CO/N=C/c1ccc(Br)nc1 [VII-1, 6-bromo-pyridine-3-carbaldehyde (E)-O-methyl-oxime] |  |  |  | chromatographic logP ([2]; pH 2.3): 2.16
5 | Cc1nc(C(F)(F)F)c(C(=O)Nc2ccccc2-c2cc(Cl)nc(Cl)c2)s1 [1-7-10] | 3.27 | 100 | 100 | Efficacy in % [6]: 100%
6 | Cn1cc(C(=O)Nc2ccccc2-c2ncc(C(F)(F)F)cc2Cl)c(C(F)(F)F)n1 [1-8-29] | 3.13 |  | 98 | 
7 | Cc1occc1C(=O)Nc1ccccc1-c1ncc(C(F)(F)F)cc1Cl [1-8-2] | 3.44 |  |  | Efficacy in % [4]: 100%; Efficacy in % [5]: 100%; Efficacy in % [6]: 100%
8 | Cn1cc(C(=O)Nc2ccccc2-c2ncc(C(F)(F)F)cc2Cl)c(C(F)F)n1 [1-8-27] | 2.91 | 97 | 100 | 
9 | O=C(Nc1ccccc1-c1ncc(C(F)(F)F)cc1Cl)C1=C(C(F)(F)F)OCCS1 [1-8-25] | 3.43 |  | 99 | 
10 | Cc1nc(C(F)(F)F)c(C(=O)Nc2ccccc2-c2ncc(C(F)(F)F)cc2Cl)s1 [1-8-28] | 3.48 | 96 | 98 | 
11 | Cn1cc(C(=O)Nc2ccccc2-c2ccnc(Br)c2)c(C(F)F)n1 [1-7-6] | 2.13 |  |  | Efficacy in % [4]: 100%; Efficacy in % [5]: 93%; Efficacy in % [6]: 95%
12 | CO/N=C/c1ccc(-c2ccccc2N)nc1 [III-2, 6-(2-amino-phenyl)-pyridine-3-carbaldehyde (E)-O-methyl-oxime] |  |  |  | chromatographic logP [2, 8]: 1.59
13 | Cc1nn(C)c(F)c1C(=O)Nc1ccccc1-c1ccnc(Br)c1 [1-7-4] | 2.02 |  |  | Efficacy in % [4]: 100%; Efficacy in % [5]: 93%
14 | O=C(Nc1ccccc1-c1ncc(C(F)(F)F)cc1Cl)c1ccccc1C(F)(F)F [1-8-1] | 3.59 | 100 | 100 | Efficacy in % [4]: 100%; chromatographic logP [2, 8]: 3.58
15 | Nc1ccccc1-c1ncc(C(F)(F)F)cc1Cl [III-1, 2-[3-chloro-5-(trifluoromethyl)-2-pyridinyl]aniline] |  |  |  | chromatographic logP [2, 8]: 2.79
16 | O=C(Nc1ccccc1I)c1ccccc1C(F)(F)F [IV-1] |  |  |  | chromatographic logP [2, 8]: 2.98

The next lines start with results.

Row | chromatographic logP [2, 7] | SMILES | pest or weed control at 100 g/ha [1] [%] | pest or weed control at 100 g/ha [3] [%] | other results
17 | 2.1 | Cn1cc(C(=O)Nc2ccccc2-c2ccc(Cl)nc2)c(C(F)F)n1 [1-6-7] | 98 |  | 
18 | 4 | O=C(Nc1ccccc1-c1ccc(Cl)cn1)c1ccccc1C(F)(F)F [1-8-12] | 92 | 100 | 
19 | 2.85 | O=C(Nc1ccccc1-c1ccnc(Br)c1)c1ccccc1C(F)(F)F [1-7-5] |  |  | Efficacy in % [5]: 93%
20 | 2.95 | CON=Cc1ccc(-c2ccccc2NC(=O)c2cccnc2Cl)nc1 [1-8-15, 2-chloro-N-{2-[5-(E)methoxyimino-methyl)-pyridin-2-yl]-phenyl}-nicotinamide] |  |  | chromatographic logP [2, 8]: 2.95
21 | 3.05 | Cn1cc(C(=O)Nc2ccccc2-c2ccc(Cl)cn2)c(C(F)F)n1 [1-8-14] |  | 100 | Efficacy in % [5]: 94%
22 | 3.45 | O=C(Nc1ccccc1-c1ncc(C(F)(F)F)cc1Cl)c1ccccc1Cl [1-8-20] | 100 |  | 
23 | 2.95 | O=C(Nc1ccccc1-c1ccc(Cl)cn1)c1cccnc1Cl [1-8-10] | 100 | 100 | Efficacy in % [4]: 94%; Efficacy in % [5]: 100%
24 | 3.06 | Cc1nn(C)c(F)c1C(=O)Nc1ccccc1-c1ccc(Cl)cn1 [1-8-11] | 95 | 100 | 
25 | 4.13 | O=C(Nc1ccccc1-c1ccc(C(F)(F)F)cn1)c1ccccc1C(F)(F)F [1-8-9] | 97 |  | Efficacy in % [6]: 95%
26 | 3.49 | O=C(Nc1ccccc1-c1ncc(C(F)(F)F)cc1Cl)c1ccccc1Br [1-8-21] | 100 |  | 
